The source of these data is paper PMC6479981, “Design, Synthesis, and In Vitro Biological Activities of a Bio-Oxidizable Prodrug to Deliver Both ChEs and DYRK1A Inhibitors for AD Therapy” (Molecules, 2019).

Where two headings read alike, the source gives them in different places.

Series [1] concerns the target T1, hBuChE (Homo sapiens, UniProt P06276).
T1 construct: purchased Aldrich
In words: biochemical. The format is biochemical. The protocol: (§1) Inhibitory capacity of compounds on hAChE and hBuChE biological activity was evaluated through the use of Ellman’s spectrometric method. Acetylthiocholine iodide (ATCI), […] (BTCI) and 5,5-dithiobis-(2-nitrobenzoic) acid (DTNB) were purchased from Sigma Aldrich. Lyophilized hAChE and hBuChE were purchased from Aldrich, and were diluted in phosphate buffer (pH 8) so as to give an enzyme solution with 0.25 units/mL enzyme activity. In the procedure, 100 μL of 0.3 mM DTNB dissolved in phosphate buffer pH 7.4 were added into the 96 well plate, followed by 50 μL of the tested compound solution and 50 μL of enzyme solution. After 5 min of preincubation, the reaction was then initiated by the injection of 50 μL of 10 mM ATCI or BTCI solution. […] All assays were performed in duplicate, and IC50 values were determined graphically from 8 points inhibition curves using the Prism® software.

For series [2], the target named is T2, hAChE (Homo sapiens, UniProt P22303).
T2 construct: purchased Aldrich
In words: biochemical. The format is biochemical. The protocol: as §1

In another series the target is T3, human recombinant DYRK1A (Homo sapiens, UniProt Q13627).
T3 construct: Eurofins Pharma Discovery (ran the assay)
In words: biochemical. The settings on record: for inhibition at 1 µM: read-out: DYRK1a Inhibition (%). The protocol:
Evaluation of the effects of compounds on the activity of the human recombinant DYRK1A was made using the LANCE® detection method, and was quantified by measuring the phosphorylation of Ulight-[…]-amide (MBP). The assays were conducted by Eurofins Pharma Discovery in Bois l’Evêque, France. […] Next, 100 nM of Ulight-[…]-amide (MBP) and 10 µM ATP were added to initiate the reaction, and the mixture was incubated for 30 min at 25 °C. A blank without enzyme was also performed for control basal measurements. The experiment was stopped by addition of 13 mM EDTA, followed by the addition of the anti-phospho-MBP antibody labeled with europium chelate after 5 min. […] Outputs are expressed as a percentage of inhibition of the control DYRK1A activity.

The target in series [3] is T4, peripheral binding site of eeAChE (Electrophorus electricus, UniProt O42275).
T4 construct: purchased Aldrich
In words: Propidium iodide displacement (competition) assay. The protocol:
The assays were performed at the Centre d’Etudes et de Recherche sur le Médicament de Normandie (CERMN) in Caen, France. […] Fluorescence intensity was monitored using a microplate reader. […] Each assay was performed in triplicate.

A short description of series [4]: PAMPA-BBB permeability assay. The settings on record: pH 7.4, 4 h, room temperature. The format is in vitro ADME. The protocol:
Assays were performed at the Centre d’Etudes et de Recherche sur le Médicament de Normandie (CERMN) in Caen, France. These assays were realized according to the methodology developed by PION, by means of the Pampa-BBB Explorer™ system. This system allows the measurement of the crossing velocity of a compound from one compartment to another through an artificial membrane at pH = 7.4. The experiment was replicated 6 times in 4 h, with quantification by UV-spectra reading. The result is given in Pe [cm·s^−1], and an interpretation by comparison with standard compounds is proposed. The studied compounds were diluted at 20 mM in DMSO, then diluted at […] in Prisma HT Buffer pH 7.4 (pION). 200 µL of this solution was placed in the wells of the donor plate. 5 μL of BBB-1 Lipid was placed in the filters of the acceptor plate. 200 µL of Brain Sink Buffer was added in the wells of the acceptor plate. The sandwich was then assembled and incubated for 4 h at room temperature, without stirring. The sandwich was then separated and the UV-vis spectra of the donor and acceptor compartments were determined with the plate reader (Tecan infinite M200, Männedorf, Switzerland). Pe were calculated with the PAMPA Explorer software v.3.7 (pION Inc, Billerica, MA, USA). Standard compounds used were corticosterone and theophylline.

Series [5] addresses T1, hBuChE. In words: Time-dependent (stopped time) kinetic study of hBuChE inhibition. The format is biochemical. The protocol: (§2) To support the assumption of the pseudo-irreversible inhibition mechanism of both ChEs by compound 14, kinetic studies were also performed using stopped time assays at different concentrations of ligand 14. […] Using a nonlinear regression fitting analysis, the pseudo-first-order inhibition rate constant (kobs) for each concentration of 14 was obtained and the equilibrium constant (Kc) and the carbamoylation rate constant (k3) was determined by the reported method.
(§3) For the time-dependent experiments, assays were performed using a 96 well microplate reader to a final volume of 250 μL, a final enzyme concentration of 0.05 U·mL^−1 and an ATCI (or BTCI) and DNTB concentrations of 0.3 and 0.5 mM respectively in phosphate buffer (pH 8). At the starting time (t0), the inhibitor at various concentration (150 μL) was added to an equivalent volume of hAChE (or hBuChE). The mixture was then incubated at 37 °C and, at different time points, 50 μL aliquots were transferred to wells containing a solution of ATCI (or BTCI) and DTNB in phosphate buffer (200 μL) and the activity was determined by measuring the changes in absorbance at 412 nm every minute for 10 min. Blank experiments were also performed without inhibitor. The first order inhibition constant kobs was determined for all inhibitor concentrations using a nonlinear regression. Data were fitted with the equation, A = A0 exp(−kobs·t) + A∞ with A, A0, A∞ being ratios of the inhibited enzyme activity to the control activity at time t, 0, and ∞. Double reciprocal plots of kobs versus the inhibitor concentration were made to determine the equilibrium constant Kc and the carbamoylation rate constant k3, following the described method.

Series [6] deals with T2, hAChE. In words: Time-dependent (stopped time) kinetic study of hAChE inhibition. The format is biochemical. The protocol:
as §2, §3

[7] abbreviates: mean value of duplicate, 5 min preincubation, read-out: IC50 hBuChE.
[8] abbreviates: mean value of duplicate, 5 min preincubation, read-out: IC50 hAChE.
The mark [9] stands for this setting: at 1 μM compound, 10 μM ATP concentration, mean value of duplicate.

T2 sequence (P22303 32-614): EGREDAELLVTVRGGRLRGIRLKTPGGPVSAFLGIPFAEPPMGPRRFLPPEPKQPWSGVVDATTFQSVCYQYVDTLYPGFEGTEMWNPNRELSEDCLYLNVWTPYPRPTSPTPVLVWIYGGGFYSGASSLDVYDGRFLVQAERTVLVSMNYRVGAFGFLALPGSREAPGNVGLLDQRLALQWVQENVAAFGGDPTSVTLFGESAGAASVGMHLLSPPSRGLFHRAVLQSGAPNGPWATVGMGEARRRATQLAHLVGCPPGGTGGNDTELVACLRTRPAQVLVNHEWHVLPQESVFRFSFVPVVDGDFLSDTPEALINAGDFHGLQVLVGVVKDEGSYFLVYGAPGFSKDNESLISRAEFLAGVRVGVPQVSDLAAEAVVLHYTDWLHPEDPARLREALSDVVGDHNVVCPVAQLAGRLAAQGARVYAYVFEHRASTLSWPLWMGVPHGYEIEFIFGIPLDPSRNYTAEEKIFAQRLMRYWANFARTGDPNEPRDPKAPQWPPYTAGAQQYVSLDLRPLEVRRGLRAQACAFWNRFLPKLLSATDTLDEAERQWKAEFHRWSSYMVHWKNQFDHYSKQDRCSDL
T1 sequence (P06276 29-602): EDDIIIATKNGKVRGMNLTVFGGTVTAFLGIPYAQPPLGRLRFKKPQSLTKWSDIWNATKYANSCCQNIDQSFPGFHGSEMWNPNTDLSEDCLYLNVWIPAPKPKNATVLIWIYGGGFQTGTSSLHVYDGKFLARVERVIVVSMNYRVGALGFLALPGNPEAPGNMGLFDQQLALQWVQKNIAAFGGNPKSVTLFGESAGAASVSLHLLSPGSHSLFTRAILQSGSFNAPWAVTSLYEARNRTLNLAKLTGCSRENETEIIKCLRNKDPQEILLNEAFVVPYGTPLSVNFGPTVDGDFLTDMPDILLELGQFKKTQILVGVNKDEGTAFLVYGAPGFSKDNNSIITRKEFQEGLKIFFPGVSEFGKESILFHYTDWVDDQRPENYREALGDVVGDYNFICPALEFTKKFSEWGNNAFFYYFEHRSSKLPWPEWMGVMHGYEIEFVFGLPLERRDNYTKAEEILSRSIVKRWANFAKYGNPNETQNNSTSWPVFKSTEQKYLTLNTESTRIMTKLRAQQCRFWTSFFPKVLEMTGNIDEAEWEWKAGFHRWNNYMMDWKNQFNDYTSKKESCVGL
T4 sequence (O42275 24-633): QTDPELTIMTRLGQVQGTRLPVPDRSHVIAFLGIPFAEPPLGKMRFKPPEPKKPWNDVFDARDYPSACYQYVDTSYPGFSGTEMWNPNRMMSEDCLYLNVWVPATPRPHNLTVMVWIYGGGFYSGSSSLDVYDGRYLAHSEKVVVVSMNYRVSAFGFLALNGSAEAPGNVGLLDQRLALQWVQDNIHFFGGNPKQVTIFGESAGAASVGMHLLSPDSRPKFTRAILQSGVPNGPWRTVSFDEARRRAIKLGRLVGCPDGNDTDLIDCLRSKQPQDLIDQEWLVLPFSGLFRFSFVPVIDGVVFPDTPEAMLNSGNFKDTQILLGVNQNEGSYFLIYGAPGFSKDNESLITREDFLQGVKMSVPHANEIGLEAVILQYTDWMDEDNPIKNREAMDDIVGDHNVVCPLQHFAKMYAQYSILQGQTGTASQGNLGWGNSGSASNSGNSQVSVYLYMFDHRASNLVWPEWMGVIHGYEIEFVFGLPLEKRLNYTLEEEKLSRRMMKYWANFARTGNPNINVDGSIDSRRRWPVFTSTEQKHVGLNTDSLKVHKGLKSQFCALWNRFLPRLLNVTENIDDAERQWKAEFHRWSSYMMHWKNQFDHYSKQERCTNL

As usually defined, the IC50 is the concentration at which inhibition is half-maximal. The term inhibition denotes the relative decrease from the control value, in per cent. With `CN(C)C(=O)Oc1cccc2c1cc(C(=O)NCCO)c[n+]2C` [2a, reference compound], the IC50 amounted to 1440 ± 286 nM against hBuChE [1] and 37.1 ± 0.1 nM on hAChE [2]. Further, the inhibition at 1 µM at human recombinant DYRK1A was 0%.
Take `CCN1/C(=C/C(C)=O)Sc2ccc(O)cc21` [Indy, reference compound]: the IC50 at hBuChE [1] (setting [7]) and on hAChE [2] (setting [8]) was > 10000 nM throughout.
Consider `CCN1/C(=C/C(C)=O)Sc2ccc(OC(=O)OCCOCCNC(=O)C3=CN(C)c4cccc(OC(=O)N(C)C)c4C3)cc21` [compound 4, (Z)-3-((2-(2-((((3-Ethyl-2-(2-oxopropylidene)-2,3-dihydrobenzo[d]thiazol-5-yl)oxy)carbonyl)oxy)ethoxy)ethyl)carbamoyl)-1-methyl-1,4-dihydroquinolin-5-yl dimethylcarbamate], for which the inhibition at 10 µM in series [3] (read-out: Propidium Iodide Displacement Inhibition (%)) was determined as 4 ± 2%. The IC50 was found to be 961 ± 22 nM at hBuChE [1] and 1020 ± 72.1 nM at hAChE [2]. The inhibition at 1 µM at human recombinant DYRK1A amounted to 8%. The Papp at 4 h in series [4] (PAMPA, read-out: Pe (PAMPA BBB, passive diffusion)) is 2.41 ×10⁻⁶ cm/s.
On to `CCN1/C(=C/C(C)=O)Sc2ccc(OC(=O)OCCOCCNC(=O)c3cc4c(OC(=O)N(C)C)cccc4[n+](C)c3)cc21.COS(=O)(=O)[O-]` [compound 14, (Z)-5-((Dimethylcarbamoyl)oxy)-3-((2-(2-((((3-ethyl-2-(2-oxopropylidene)-2,3-dihydrobenzo[d]thiazol-5-yl)oxy)carbonyl)oxy)ethoxy)ethyl)carbamoyl)-1-methylquinolin-1-ium methyl sulfate], for which the “Propidium Iodide Displacement Inhibition (%)” value in series [3] (compound 10^−5 M, eeAChE, propidium iodide 1 μM, mean value of triplicate) is 26 ± 1%. For the same compound, the entries for the “carbamoylation rate constant k3” value on hBuChE [5] (hBChE) and on hAChE [6] were 0.574 min⁻¹ and 0.408 min⁻¹, respectively. The Kd worked out at 659 nM on hBuChE [5] (hBChE, 37 °C, double reciprocal plot of kobs vs inhibitor concentration, read-out: equilibrium constant Kc) and 230 nM at hAChE [6] (37 °C, double reciprocal plot of kobs vs inhibitor concentration, read-out: equilibrium constant Kc). Further, the “second order rate constant Ki (k3/Kc), carbamylation efficacy” value at hBuChE [5] (hBuChE) was found to be 0.87 µM⁻¹ min⁻¹; on hAChE [6], 1.78 µM⁻¹ min⁻¹. The IC50 at hBuChE [1] (setting [7]) amounted to 482 ± 21 nM; at hAChE [2] (setting [8]) it was 81.4 ± 0.4 nM. Besides, the “DYRK1a Inhibition (%)” value on human recombinant DYRK1A (setting [9]) is 5%. In series [4], the “Pe (PAMPA BBB, passive diffusion)” value was 0 cm/s.
On to `CCN1/C(=C/C(C)=O)Sc2ccc(OC(=O)OCCOCCNC(=O)c3cc4ccccc4[n+](C)c3)cc21.COS(=O)(=O)[O-]` [compound 15, (Z)-3-((2-(2-((((3-Ethyl-2-(2-oxopropylidene)-2,3-dihydrobenzo[d]thiazol-5-yl)oxy)carbonyl)oxy)ethoxy)ethyl)carbamoyl)-1-methylquinolin-1-ium methyl sulfate], for which the “inhibitory activity against hBuChE (in words)” value against hBuChE [1] is given as “did not show any significant inhibitory activity”. The IC50 at hBuChE [1] (setting [7]) was 6400 ± 714 nM; at hAChE [2] (setting [8]) it was > 10000 nM. Moreover, the “inhibitory activity against hAChE (in words)” value at hAChE [2] is given as “did not show any significant inhibitory activity”. At human recombinant DYRK1A (setting [9]), the “DYRK1a Inhibition (%)” value is 6%.
For the compound `CCN1/C(=C/C(C)=O)Sc2ccc(OC(=O)OCCOCCNC(=O)C3=CN(C)c4ccccc4C3)cc21` [compound 16, (Z)-3-Ethyl-2-(2-oxopropylidene)-2,3-dihydrobenzo[d]thiazol-5-yl (2-(2-(1-methyl-1,4-dihydroquinoline-3-carboxamido)ethoxy)ethyl) carbonate], the IC50 on hBuChE [1] (setting [7]) and on hAChE [2] (setting [8]) was > 10000 nM in each case. The inhibition at 1 µM at human recombinant DYRK1A (setting [9]) was found to be 7%.
